Patent US6710049B2, “Azole compounds as anti-fungal agents” (Ranbaxy Laboratories Limited, priority 2000, dated 2004)
≈ marks a conversion by molar mass, not a printed value.

Legend:
P variotii 22319 [1] = test: MIC determination (NCCLS broth method); format: cell-based, Paecillomyces variotii
Description: (§1) The in-vitro evaluation of the antifungal activity of the compounds can be performed by determining the minimum inhibitory concentration (MIC) as shown in Table 1 which is the concentration of the test compound in Rosewell Park Memorial Institute (RPMI) 1640 liquid medium buffered with 3-(Morpholino)propanesulphonic acid (MOPS) to pH 7, at which there is significant inhibition of the particular fungi. In practice the National Committee for Clinical Laboratory Standard (NCCLS) M27A document for Candida and Cryptococcus and M38P for Aspergillus was used to determine the MIC against yeast and filamentous fungi with suitable modifications for dermatophytes to other filamentous fungi. Three quality control strains were included each time the MIC were determined and readings recorded only when the Quality Control results fell into the acceptable range. After MIC results had been recorded, 100 μl from each of the well showing no growth was spread over Sabouraud Dextrose Agar (SDA) to determine the minimum fungicidal concentration (MFC) as shown in Table 2.

C albicans A-26 = test: MIC determination (NCCLS broth method); format: cell-based, Candida albicans
Description: as §1

C albicans Y01.19 = test: MIC determination (NCCLS broth method); format: cell-based, Candida albicans
Description: as §1

A flavus E2 - 1043 = test: MIC determination (NCCLS broth method); format: cell-based
Description: as §1

A flavus E3 - 1044 = test: MIC determination (NCCLS broth method); format: cell-based
Description: as §1

A flavus E4 - 1042 = test: MIC determination (NCCLS broth method); format: cell-based
Description: as §1

A flavus P2 - 1045 = test: MIC determination (NCCLS broth method); format: cell-based
Description: as §1

A flavus P3 - 1041 = test: MIC determination (NCCLS broth method); format: cell-based
Description: as §1

A niger E5 - 1047 = test: MIC determination (NCCLS broth method); format: cell-based
Description: as §1

A niger P1 - 1046 = test: MIC determination (NCCLS broth method); format: cell-based
Description: as §1

Alternaria 1051 = test: MIC determination (NCCLS broth method); format: cell-based
Description: as §1

C glabrata 90030 = test: MIC determination (NCCLS broth method); format: cell-based
Description: as §1

C krusei 6258 = test: MIC determination (NCCLS broth method); format: cell-based
Description: as §1

C krusei 766.1 = test: MIC determination (NCCLS broth method); format: cell-based
Description: as §1

C parapsilosis 22019 = test: MIC determination (NCCLS broth method); format: cell-based
Description: as §1

C tropicalis 750 = test: MIC determination (NCCLS broth method); format: cell-based
Description: as §1

Fusarium 1050 = test: MIC determination (NCCLS broth method); format: cell-based
Description: as §1

Fusarium 1827C = test: MIC determination (NCCLS broth method); format: cell-based
Description: as §1

Fusarium 2960C = test: MIC determination (NCCLS broth method); format: cell-based
Description: as §1

Mucor (Ceylon) = test: MIC determination (NCCLS broth method); format: cell-based
Description: as §1

Penicillium 1641 = test: MIC determination (NCCLS broth method); format: cell-based
Description: as §1

Penicillium 191 = test: MIC determination (NCCLS broth method); format: cell-based
Description: as §1

Penicillium 2548 = test: MIC determination (NCCLS broth method); format: cell-based
Description: as §1

Penicillium 3162 = test: MIC determination (NCCLS broth method); format: cell-based
Description: as §1

Penicillium H - 1048 = test: MIC determination (NCCLS broth method); format: cell-based
Description: as §1

Penicillium I - 1049 = test: MIC determination (NCCLS broth method); format: cell-based
Description: as §1

Rhizopus (Ceylon) = test: MIC determination (NCCLS broth method); format: cell-based
Description: as §1

Rhizopus 1052 = test: MIC determination (NCCLS broth method); format: cell-based
Description: as §1

C neoformans I = test: MIC determination (NCCLS broth method); format: cell-based, Cryptococcus neoformans
Description: as §1

C neoformans M-106 = test: MIC determination (NCCLS broth method); format: cell-based, Cryptococcus neoformans
Description: as §1

A fumigatus SI-1 - 1019 = test: MIC determination (NCCLS broth method); format: cell-based, Aspergillus fumigatus
Description: as §1

P variotii 22319 [2] = test: MFC determination (subculture on Sabouraud Dextrose Agar); format: cell-based, Paecillomyces variotii
Description: as §1

All Candida isolates = test: Comparative in vitro MIC, isolate panel; format: cell-based
Description: as §1
(§2) A comparative in vitro and in vivo biologically activity data of the compound of our invention, 2-{[1R,2R]-2-(2,4-Difluorophenyl)-2-hydroxy-1-methyl-3-(1H-1,2,4-triazole-1-yl)propyl}-4-[(2′,2′,3′,3′-tetrafluoropropoxyphenyl)-3-(2H,4H)-1,2,4-thiotriazolone (Compound No. 3) with 2-[(1R,2R)-2-(2,4-difluorophenyl)-2-hydroxy-1-methyl-3-(1H-1,2,4-triazol-1-yl)propyl]-4-(2′,2′,3′,3′-tetraflouropropoxyphenyl)-3(2H,4H)-1,2,4-triazolone (TAK 187) and standard antifungal pharmaceuticals is given below: […]

All Filamentous isolates = test: Comparative in vitro MIC, isolate panel; format: cell-based
Description: as §1, §2

All fungal pathogens = test: Comparative in vitro MIC, isolate panel; format: cell-based
Description: as §1, §2

[3] = test system: Aspergillus fumigatus isolates; test: Comparative in vitro MIC, isolate panel; format: cell-based
Description: as §1, §2

Fusarium spp. isolates = test: Comparative in vitro MIC, isolate panel; format: cell-based
Description: as §1, §2

[4] = test system: Penicillium spp. isolates; test: Comparative in vitro MIC, isolate panel; format: cell-based
Description: as §1, §2

Rhizoupus spp. isolates = test: Comparative in vitro MIC, isolate panel; format: cell-based
Description: as §1, §2

## C[C@@H]1[C@H](O)[C@@H](C)/C=C/C=C/C=C/C=C/C=C/C=C/C=C/[C@H](O[C@@H]2O[C@H](C)[C@@H](O)[C@H](N)[C@@H]2O)C[C@@H]2O[C@](O)(C[C@@H](O)C[C@@H](O)[C@H](O)CC[C@@H](O)C[C@@H](O)CC(=O)O[C@H]1C)C[C@H](O)[C@H]2C(=O)O [Amphotericin-B, Amphotericin B]
P variotii 22319 [1]
  Minimum Inhibitory Concentration (MIC): 0.03 µg/mL
C albicans A-26
  Minimum Inhibitory Concentration (MIC): 0.25 µg/mL
C albicans Y01.19
  Minimum Inhibitory Concentration (MIC): 0.125 µg/mL
A flavus E2 - 1043
  Minimum Inhibitory Concentration (MIC): 1 µg/mL
A flavus E3 - 1044
  Minimum Inhibitory Concentration (MIC): 1 µg/mL
A flavus E4 - 1042
  Minimum Inhibitory Concentration (MIC): 0.125 µg/mL
A flavus P2 - 1045
  Minimum Inhibitory Concentration (MIC): 1 µg/mL
A flavus P3 - 1041
  Minimum Inhibitory Concentration (MIC): 0.5 µg/mL
A niger E5 - 1047
  Minimum Inhibitory Concentration (MIC): 0.25 µg/mL
A niger P1 - 1046
  Minimum Inhibitory Concentration (MIC): 0.25 µg/mL
Alternaria 1051
  Minimum Inhibitory Concentration (MIC): 1 µg/mL
C glabrata 90030
  Minimum Inhibitory Concentration (MIC): 0.25 µg/mL
C krusei 6258
  Minimum Inhibitory Concentration (MIC): 0.25 µg/mL
C krusei 766.1
  Minimum Inhibitory Concentration (MIC): 0.25 µg/mL
C parapsilosis 22019
  Minimum Inhibitory Concentration (MIC): 0.25 µg/mL
C tropicalis 750
  Minimum Inhibitory Concentration (MIC): 0.25 µg/mL
Fusarium 1050
  Minimum Inhibitory Concentration (MIC): 0.5 µg/mL
Fusarium 1827C
  Minimum Inhibitory Concentration (MIC): >128 µg/mL
Fusarium 2960C
  Minimum Inhibitory Concentration (MIC): 0.5 µg/mL
Mucor (Ceylon)
  Minimum Inhibitory Concentration (MIC): 0.06 µg/mL
Penicillium 1641
  Minimum Inhibitory Concentration (MIC): 0.06 µg/mL
Penicillium 191
  Minimum Inhibitory Concentration (MIC): 0.25 µg/mL
Penicillium 2548
  Minimum Inhibitory Concentration (MIC): 0.03 µg/mL
Penicillium 3162
  Minimum Inhibitory Concentration (MIC): 0.25 µg/mL
Penicillium H - 1048
  Minimum Inhibitory Concentration (MIC): 0.25 µg/mL
Penicillium I - 1049
  Minimum Inhibitory Concentration (MIC): 0.25 µg/mL
Rhizopus (Ceylon)
  Minimum Inhibitory Concentration (MIC): 64 µg/mL
Rhizopus 1052
  Minimum Inhibitory Concentration (MIC): 0.06 µg/mL
C neoformans I
  Minimum Inhibitory Concentration (MIC): 0.06 µg/mL
C neoformans M-106
  Minimum Inhibitory Concentration (MIC): 0.03 µg/mL
A fumigatus SI-1 - 1019
  Minimum Inhibitory Concentration (MIC): 0.5 µg/mL
P variotii 22319 [2]
  Minimum Fungicidal Concentration (MFC): 2 µg/mL
All Candida isolates
  MIC50: 0.25 µg/mL (≈ 0.271 µM)
  MIC90: 0.25 µg/mL (≈ 0.271 µM)
  MIC G.M.: 0.22 µg/mL (≈ 0.238 µM)
All Filamentous isolates
  MIC50: 0.25 µg/mL (≈ 0.271 µM)
  MIC90: 0.5 µg/mL (≈ 0.541 µM)
  MIC G.M.: 0.22 µg/mL (≈ 0.238 µM)
All fungal pathogens
  MIC50: 0.25 µg/mL (≈ 0.271 µM)
  MIC90: 0.5 µg/mL (≈ 0.541 µM)
  MIC G.M.: 0.21 µg/mL (≈ 0.227 µM)
[3]
  MIC50: 0.25 µg/mL (≈ 0.271 µM)
  MIC90: 0.5 µg/mL (≈ 0.541 µM)
  MIC G.M.: 0.27 µg/mL (≈ 0.292 µM)
Fusarium spp. isolates
  MIC50: 0.5 µg/mL (≈ 0.541 µM)
  MIC90: 2 µg/mL (≈ 2.16 µM)
  MIC G.M.: 0.841 µg/mL (≈ 0.91 µM)
[4]
  MIC50: 0.25 µg/mL (≈ 0.271 µM)
  MIC90: 0.25 µg/mL (≈ 0.271 µM)
  MIC G.M.: 0.144 µg/mL (≈ 0.156 µM)
Rhizoupus spp. isolates
  MIC50: 0.125 µg/mL (≈ 0.135 µM)
  MIC90: 0.25 µg/mL (≈ 0.271 µM)
  MIC G.M.: 0.177 µg/mL (≈ 0.192 µM)
